Data: patent US8809391B2, “Agent for treating Parkinson's disease” (OOO “Tomskaya Farmatsevticheskaya Fabrika”, priority 2009, dated 2014)

Key:
white outbred mice = assay: Acute toxicity, single intragastric administration, Kerber method; conditions: mouse, in vivo
From the text: (§1) The acute toxicity of the compound 1a was studied in white outbred mice weighting 20-22 g following single intragastric administration using Kerber method.

[1] = as above; conditions: mouse, in vivo, po; white outbred mice 20-22 g, single intragastric administration, Kerber method
From the text: as §1

[2] = test system: MPTP-induced parkinsonism; assay: Antiparkinson activity in mice after 3 days administration of MPTP (locomotor activity, TruScan); type: in vivo; conditions: for general movement activity (number of movement acts) / movement activity / movement distance / movement speed / number of explored holes / number of rearings / time of exploratory activity: 3 min
Description: (§2) Parkinsonism was induced by single and multiple intraperitoneal administration of MPTP in 30 mg/kg doses in male mice of C57B1/6 strain and Wistar rats.
(§3) Antiparkinson activity of the agents was studied by the degree of hypokinesia and locomotor activity using Truscan apparatus (USA) or by mortality percentage.
Experiments were carried out in male mice of C57B1/6 strain in groups of 10 mice each. Parkinson syndrome was induced by intraperitoneal administration of 30 mg/kg dose of MPTP during 3 days. The agent ((1R,2R,6S)-1a was administered per os in 20 mg/kg and 30 mg/kg doses 24 hours after the last MPTP injection. Hypokinesia was evaluated 1 hour after the agent administration by the degree of locomotor activity using TruScan apparatus (USA) during 3 minutes.
Experiments were carried out in male mice of C57B1/6 strain in groups of 10 mice each. Parkinson syndrome was induced by intraperitoneal administration of 30 mg/kg dose of MPTP daily during 3 days. Agent (1R,2R,6S)-1b with ee 60% in 20 mg/kg dose was administered per os 24 hours after the last MPTP injection. Hypokinesia was evaluated 1.5 hours after MPTP injection by the degree of locomotor activity using TruScan apparatus (USA) during 3 minutes.

[3] = test system: MPTP-induced parkinsonism; assay: Antiparkinson activity in rats in 30 days administration of MPTP and the agent (locomotor activity, TruScan); type: in vivo; conditions: for general movement activity (number of movement acts) / movement activity / movement distance / movement speed / number of explored holes / number of rearings / time of exploratory activity: Wistar rats, MPTP 30 mg/kg (table; text 40 mg/kg) i.p. daily 30 days, day 30, 3 min
Description: as §2, §3
Experiments were carried out in male Wistar rats in groups of 10 mice each. Parkinson syndrome was induced by intraperitoneal administration of 40 mg/kg dose of MPTP daily during 30 days. Saline was administered to intact control group. The agent ((1R,2R,6S)-1a in 20 mg/kg dose and levodopa (the drug of comparison) in 10 mg/kg dose were administered per os 4 hours after MPTP injection daily during 30 days. Hypokinesia was evaluated on 30 day of experiment by the degree of locomotor activity using TruScan apparatus (USA) during 3 minutes.

[4] = test system: MPTP-induced parkinsonism; assay: Antiparkinson activity in mice in 10 days administration of MPTP and the agent (mortality); type: in vivo; conditions: for Mortality, %: C57B1/6 mice, MPTP 30 mg/kg i.p. daily 10 days, day 11
Description: as §3
Experiments were carried out in male mice of C57B1/6 strain in groups of 10 mice each. Parkinson syndrome was induced by intraperitoneal administration of 30 mg/kg dose of MPTP daily during 10 days. The agent ((1R,2R,6S)-1a in 20 mg/kg dose and levodopa (the drug of comparison) in 10 mg/kg dose were administered per os 4 hours after MPTP injection daily during 10 days. The effect was evaluated by the number of surviving animals on the 11 day of the experiment.

[5] = test system: MPTP-induced parkinsonism; assay: Antiparkinson activity in mice after single administration of MPTP (locomotor activity, TruScan); type: in vivo; conditions: for general movement activity (number of movement acts) / movement activity / movement distance / movement speed / number of explored holes / number of rearings / time of exploratory activity: single MPTP 30 mg/kg i.p., 1.5 h after MPTP, 3 min; for antiparkinson activity (in words): mice, single administration of MPTP, doses 10 and/or 20 mg/kg per os as stated in the sentence
Description: as §2, §3
(§4) Experiments were carried out in male mice of C57B1/6 strain in groups of 10 mice each. Parkinson syndrome was induced by intraperitoneal administration of 30 mg/kg dose of MPTP, saline was administered to intact control group. The agent was administered per os 15 minutes after the reproduction of Parkinson syndrome. Hypokinesia was evaluated 1.5 hours after MPTP injection by the degree of locomotor activity using TruScan apparatus (USA) during 3 minutes.
as §4, with “agents in 20 mg/kg doses were” for “agent was”
as §4, with “agent in 10 mg/kg and 20 mg/kg doses were” for “agent was”

[6] = C57B1/6 mice, MPTP 30 mg/kg i.p. 3 days, agent 20 mg/kg per os 24 h after last MPTP, 1 h after agent
[7] = C57B1/6 mice, MPTP 30 mg/kg i.p. 3 days, agent 30 mg/kg per os 24 h after last MPTP, 1 h after agent
[8] = agent 20 mg/kg per os 4 h after MPTP daily
[9] = C57B1/6 mice, agent 10 mg/kg per os 15 min after
[10] = C57B1/6 mice, agent 20 mg/kg per os 15 min after
[11] = Table 5: C57B1/6 mice, agents 20 mg/kg per os 15 min after
[12] = Table 7: C57B1/6 mice, MPTP 30 mg/kg i.p. daily 3 days, agent 20 mg/kg per os 24 h after last MPTP
[13] = Table 6: C57B1/6 mice, agent 10 mg/kg per os 15 min after
[14] = Table 6: C57B1/6 mice, agent 20 mg/kg per os 15 min after
[15] = L-DOPA 10 mg/kg per os 4 h after MPTP daily

C=C(C)C1CC=C(C)C(O)C1O (stereo not drawn) [1a, 3-methyl-6-(1-methylethenyl)cyclohex-3-ene-1,2-diol]
acute toxicity (in words) (white outbred mice): low toxicity | LD50 [1]: 4250 mg/kg

C=C(C)[C@@H]1CC=C(C)[C@@H](O)[C@@H]1O [(1R,2R,6S)-1a with ee 60%, (1R,2R,6S)-3-methyl-6-(1-methylethenyl)cyclohex-3-ene-1,2-diol]
general movement activity (number of movement acts) [2, 6]: 81.9 ± 3.7 | movement activity [2, 6]: 70.1 ± 3.9 s | movement distance [2, 6]: 351.8 ± 26.4 cm | movement speed [2, 6]: 2.9 ± 0.2 cm/s | number of explored holes [2, 6]: 8.8 ± 1.0 | number of rearings [2, 6]: 11.1 ± 0.9 | time of exploratory activity [2, 6]: 3.9 ± 0.5 s | general movement activity (number of movement acts) [2, 7]: 81.8 ± 2.6 | movement activity [2, 7]: 66.8 ± 3.7 s | movement distance [2, 7]: 335.5 ± 28.9 cm | movement speed [2, 7]: 2.7 ± 0.2 cm/s | number of explored holes [2, 7]: 3.8 ± 0.6 | number of rearings [2, 7]: 13 ± 1.7 | time of exploratory activity [2, 7]: 1.6 ± 0.3 s | general movement activity (number of movement acts) [3, 8]: 81.89 ± 5.5 | movement activity [3, 8]: 62.56 ± 5.2 s | movement distance [3, 8]: 305.58 ± 30.38 cm | movement speed [3, 8]: 2.5 ± 0.25 cm/s | number of explored holes [3, 8]: 4.3 ± 0.73 | number of rearings [3, 8]: 10.67 ± 1.18 | time of exploratory activity [3, 8]: 1.75 ± 0.5 s | antiparkinson activity (in words) ([3]; rats, 20 mg/kg, 30 days administration of MPTP and the agent): remarkable antiparkinson activity | comparison with levodopa (in words) ([3]; rats, 30 days, agent 20 mg/kg vs levodopa 10 mg/kg): as good as the drug of comparison levodopa | Mortality, % [4, 8]: 10% | effect on mortality (in words) ([4]; mice, 20 mg/kg, 10 days of administration of the agents and MPTP): considerably reduces mortality | comparison with levodopa (in words) ([4]; mice, mortality test, agent 20 mg/kg vs levodopa 10 mg/kg): as good as the drug of comparison levodopa | general movement activity (number of movement acts) [5, 9]: 77.2 ± 5 | movement activity [5, 9]: 57 ± 5.3 s | movement distance [5, 9]: 257.3 ± 29.5 cm | movement speed [5, 9]: 2.1 ± 0.25 cm/s | number of explored holes [5, 9]: 7.7 ± 1.07 | number of rearings [5, 9]: 5.8 ± 0.6 | time of exploratory activity [5, 9]: 3.6 ± 0.7 s | general movement activity (number of movement acts) [5, 10]: 80.7 ± 4 | movement activity [5, 10]: 59 ± 4 s | movement distance [5, 10]: 276.5 ± 24 cm | movement speed [5, 10]: 2.25 ± 0.2 cm/s | number of explored holes [5, 10]: 7.6 ± 1.7 | number of rearings [5, 10]: 8.5 ± 2 | time of exploratory activity [5, 10]: 4.4 ± 1 s | antiparkinson activity (in words) [5]: remarkable antiparkinson activity

C=C(C)[C@@H]1CC=C(C)[C@@H](O)[C@@H]1O [(1R,2R,6S)-1a with ee 94%, (1R,2R,6S)-3-methyl-6-(1-methylethenyl)cyclohex-3-ene-1,2-diol]
general movement activity (number of movement acts) [5, 11]: 78.6 ± 5.0 | movement activity [5, 11]: 64.0 ± 5.5 s | movement distance [5, 11]: 332.6 ± 39.6 cm | movement speed [5, 11]: 2.7 ± 0.3 cm/s | number of explored holes [5, 11]: 3.2 ± 0.9 | number of rearings [5, 11]: 13.1 ± 2.5 | time of exploratory activity [5, 11]: 1.5 ± 0.4 s

C=C(C)[C@@H]1CC=C(C)[C@@H](O)[C@@H]1O [(1R,2R,6S)-1b with ee 60%, diacetate (1R,2R,6S)-3-methyl-6-(1-methylethenyl)cyclohex-3-ene-1,2-diol]
general movement activity (number of movement acts) [2, 12]: 83.9 ± 3.5 | movement activity [2, 12]: 64.1 ± 5.0 s | movement distance [2, 12]: 310.0 ± 35.6 cm | movement speed [2, 12]: 2.5 ± 0.3 cm/s | number of explored holes [2, 12]: 6.0 ± 1.0 | number of rearings [2, 12]: 10.4 ± 1.5 | time of exploratory activity [2, 12]: 3.2 ± 0.8 s | antiparkinson activity (in words) ([2]; mice, 3 days administration of MPTP, doses 20 (and 30) mg/kg per os as stated in the sentence): remarkable antiparkinson activity | general movement activity (number of movement acts) [5, 13]: 69.9 ± 6.7 | movement activity [5, 13]: 51.5 ± 7.5 s | movement distance [5, 13]: 244.4 ± 4.5 cm | movement speed [5, 13]: 2.0 ± 0.4 cm/s | number of explored holes [5, 13]: 3.4 ± 1.1 | number of rearings [5, 13]: 6.4 ± 1.6 | time of exploratory activity [5, 13]: 1.3 ± 0.5 s | general movement activity (number of movement acts) [5, 14]: 84.8 ± 4.4 | movement activity [5, 14]: 58.8 ± 4.5 s | movement speed [5, 14]: 1.9 ± 0.4 cm/s | number of explored holes [5, 14]: 3.2 ± 0.5 | number of rearings [5, 14]: 10.8 ± 1.7 | time of exploratory activity [5, 14]: 2.0 ± 0.3 s

C=C(C)[C@H]1CC=C(C)[C@H](O)[C@H]1O [(1S,2S,6R)-1a with ee 97%, (1S,2S,6R)-3-methyl-6-(1-methylethenyl)cyclohex-3-ene-1,2-diol]
general movement activity (number of movement acts) [5, 11]: 57.9 ± 6.0 | movement activity [5, 11]: 34.9 ± 4.3 s | movement distance [5, 11]: 147.8 ± 20.3 cm | movement speed [5, 11]: 1.13 ± 0.15 cm/s | number of explored holes [5, 11]: 2.5 ± 0.9 | number of rearings [5, 11]: 4.4 ± 1.4 | time of exploratory activity [5, 11]: 1.2 ± 0.6 s | antiparkinson activity (in words) [5]: remarkable antiparkinson activity

N[C@@H](Cc1ccc(O)c(O)c1)C(=O)O [L-DOPA, reference compound]
general movement activity (number of movement acts) [3, 15]: 86 ± 3.86 | movement activity [3, 15]: 65.09 ± 2.92 s | movement distance [3, 15]: 316.77 ± 16.2 cm | movement speed [3, 15]: 2.57 ± 0.13 cm/s | number of explored holes [3, 15]: 4.63 ± 0.56 | number of rearings [3, 15]: 9.63 ± 1.16 | time of exploratory activity [3, 15]: 1.66 ± 0.25 s | Mortality, % [4, 15]: 20%
